Results on 21 compounds are retold here after patent publication US20050014942A1, “Amide derivatives and drugs” (priority 2001, published 2005).

Structures can show the parent of a compound that is named as a salt.

As a reminder, the inhibition is the relative decrease from the control value, in per cent.

In data set [1] the test system is collagen production induced by TGF-β (NHDF cells). Kind of data set: Inhibitory effect on collagen production induced by TGF-β, [3H] proline uptake (NHDF cells). The data set is classed as cell-based, human. The settings on record: TGF-β1 3 ng/ml. The method, then:
As an index of collagen production, the uptake of [^3H] proline was measured.
Using a 96-well microplate, normal human skin derived fibroblast (NHDF, 10^4/well) or human embryonic lung fibroblast (TIG-3, 10^4/well) were cultured in a 10% fetal calf serum (FCS)-containing Dulbecco's modified Eagle medium (DMEM) for one day. After removing the culture supernatant, the cells were washed once with a 0.1% bovine serum albumin (BSA)-containing DMEM medium and then cultured in the 0.1% bovine serum albumin (BSA)-containing DMEM medium for one day. After adding each of the test compounds in each concentration (1, 3, 10 μM), the cells were cultured and, after adding TGF-β1 (3 ng/ml) and [^3H] proline (18.5 kBq/well), the cells were further cultured for additional one day.
After removing the culture supernatant, the cells were washed twice with a phosphate buffer solution (PBS) and dissolved with 0.3M NaOH and 1% sodium dodecylsulfate (SDS), and then each protein fraction was precipitated with trichloroacetic acid (TCA) After the precipitate was filtered through a glass filter (GF/B) and washed, the quantity of [^3H] proline on the glass filter was measured by a liquid scintillation counter. The number of cells was measured by a cell growth measuring kit (XTT, Roche) and the uptake of [^3H] proline was corrected by the number of cells. Inhibitory ratio was calculated as compared with the case where a difference between the uptake of [^3H] proline with or without TGF-β1.

A short description of data set [2]: Measurement of concentration of compound in rat plasma. The settings on record: oral 10 mg/kg; for concentration at 0.25 h: after 0.25 hours; for concentration at 1 h: after 1 hour; for concentration at 4 h: after 4 hours. The data set is classed as in vivo. The procedure: Each of the test compounds was dissolved or suspended in methyl cellulose and the resulting solution or suspension was orally administered to rats at a dosage of 10 mg/kg and blood was collected after 0.25 hours, 1 hour and 4 hours. The concentration in plasma in each of the compounds was measured by HPLC.

On to `COc1cc2c(cc1OC)C(C)N(C(=O)/C=C/c1c(-c3ccccc3)n(C)c3ncccc13)CC2` (stereo not drawn) [Example 3, 6,7-dimethoxy-1-methyl-2-[(2E)-3-(1-methyl-2-phenyl-1H-pyrrolo[2,3-b]pyridin-3-yl)prop-2-enoyl]-1,2,3,4-tetrahydroisoquinoline hydrochloride], for which, in data set [1] (Homo sapiens, NHDF, 1 μM), the inhibition at 1 µM worked out at 65%. The inhibition at 3 µM in data set [1] (Homo sapiens, NHDF, 3 μM) amounted to 105%. In addition, in data set [1] (Homo sapiens, NHDF, 10 μM), the inhibition at 10 µM was 143%. In data set [2], the concentration at 0.25 h lay within 120 to 660 ng/mL, the concentration at 1 h is 370 to 640 ng/mL and the concentration at 4 h lay within 260 to 310 ng/mL.

Consider `Cc1ccc2c(c1)c(C(=O)N1CCN(c3ccc(-c4nnn(C)n4)cn3)CC1)c(-c1ccccc1)n2C` [Example 26, 1,5-dimethyl-2-phenyl-3-[{4-[5-(2-methyl-2H-tetrazol-5-yl)pyridin-2-yl]piperazin-1-yl}carbonyl]-1H-indole], for which, in data set [2], the concentration at 0.25 h was in the range of 230 to 800 ng/mL, the concentration at 1 h lay in the range of 130 to 300 ng/mL and the concentration at 4 h fell in the range of 0 to 92 ng/mL.

In data set [2], `Cn1c(-c2ccccc2)c(/C=C/C(=O)N2CCc3ccccc3C2)c2cccnc21` [Example 104, 2-[(2E)-3-(1-methyl-2-phenyl-1H-pyrrolo[2,3-b]pyridin-3-yl)prop-2-enoyl]-1,2,3,4-tetrahydroisoquinoline hydrochloride] yielded a concentration at 0.25 h of 14 to 19 ng/mL, a concentration at 1 h of 44 to 71 ng/mL and a concentration at 4 h of 25 to 32 ng/mL.

Consider `COc1ccc(-c2c(/C=C/C(=O)N3CCc4cc(OC)c(OC)cc4C3)c3cccnc3n2C)cc1OC` [Example 131, 2-{(2E)-3-[1-methyl-2-(3,4-dimethoxyphenyl)-1H-pyrrolo[2,3-b]pyridin-3-yl]prop-2-enoyl}-6,7-dimethoxy-1,2,3,4-tetrahydroisoquinoline hydrochloride], for which the inhibition at 1 µM in data set [1] (Homo sapiens, NHDF, 1 μM) was 96%. For the same compound, the inhibition at 3 µM in data set [1] (Homo sapiens, NHDF, 3 μM) is 141%.

With `Cc1ccc2c(c1)c(C(=O)N1CCN(c3cnc(C(=O)N(C)[C@@H](Cc4ccccc4)C(=O)O)cn3)CC1)c(-c1ccccc1)n2C` [Example 132, N-methyl-N-[(5-{4-[(1,5-dimethyl-2-phenyl-1H-indol-3-yl)carbonyl]piperazin-1-yl}pyrazin-2-yl)carbonyl]-(S)-phenylalanine], the inhibition at 1 µM in data set [1] (Homo sapiens, NHDF, 1 μM) was 67%. Besides, the inhibition at 3 µM in data set [1] (Homo sapiens, NHDF, 3 μM) is 122%.

In the case of `COC(=O)CC1c2cc(OC)c(OC)cc2CCN1C(=O)/C=C/c1c(-c2ccccc2)n(C)c2ncccc12` (stereo not drawn) [Example 133, Methyl {6,7-dimethoxy-2-[(2E)-3-(1-methyl-2-phenyl-1H-pyrrolo[2,3-b]pyridin-3-yl)prop-2-enoyl]-1,2,3,4-tetrahydroisoquinolin-1-yl}acetate hydrochloride], in data set [1] (Homo sapiens, NHDF, 1 μM), the inhibition at 1 µM was 57%. Also, in data set [1] (Homo sapiens, NHDF, 3 μM), the inhibition at 3 µM worked out at 104%.

Consider `COc1cc2c(cc1OC)C(CC(=O)O)N(C(=O)/C=C/c1c(-c3ccccc3)n(C)c3ncccc13)CC2.Cl` (stereo not drawn) [Example 134, {6,7-dimethoxy-2-[(2E)-3-(1-methyl-2-phenyl-1H-pyrrolo[2,3-b]pyridin-3-yl)prop-2-enoyl]-1,2,3,4-tetrahydroisoquinolin-1-yl}acetic acid hydrochloride], for which the “Inhibitory effect on collagen production induced by TGF-β (% inhibition)” value in data set [1] (1 μM) is on record as 90%; in data set [1] (3 μM), 111%.

For `COc1cc2c(cc1OC)CN(C(=O)/C=C/c1c(-c3ccncc3)n(C)c3ncccc13)CC2` [Example 135, 2-{(2E)-3-[1-methyl-2-(4-pyridyl)-1H-pyrrolo[2,3-b]pyridin-3-yl]prop-2-enoyl}-6,7-dimethoxy-1,2,3,4-tetrahydroisoquinoline dihydrochloride], in data set [1] (Homo sapiens, NHDF, 1 μM), the inhibition at 1 µM was determined as 78%. The inhibition at 3 µM in data set [1] (Homo sapiens, NHDF, 3 μM) came to 110%.

On to `COc1cc2c(cc1OC)CN(C(=O)/C=C/c1c(-c3ccccc3)n(C)c3cccnc13)CC2` [Example 136, 2-[(2E)-3-(1-methyl-2-phenyl-1H-pyrrolo[3,2-b]pyridin-3-yl)prop-2-enoyl]-6,7-dimethoxy-1,2,3,4-tetrahydroisoquinoline hydrochloride], for which, in data set [1] (Homo sapiens, NHDF, 1 μM), the inhibition at 1 µM came out at 66%. The inhibition at 3 µM in data set [1] (Homo sapiens, NHDF, 3 μM) is 111%.

`Cn1c(-c2ccccc2)c(/C=C/C(=O)N(CCc2cccs2)CC(=O)O)c2cccnc21` [Example 137, N-[(2E)-3-(1-methyl-2-phenyl-1H-pyrrolo[2,3-b]pyridin-3-yl)prop-2-enoyl]-N-[2-(2-thienyl)ethyl]aminoacetic acid]: the inhibition at 1 µM in data set [1] (Homo sapiens, NHDF, 1 μM) came out at 38%. Besides, the inhibition at 3 µM in data set [1] (Homo sapiens, NHDF, 3 μM) was found to be 72%.

Take `COc1cc2c(cc1OC)CN(C(=O)/C=C/c1c(-c3ccccc3)[nH]c3ncccc13)CC2` [Example 138, 6,7-dimethoxy-2-[(2E)-3-(2-phenyl-1H-pyrrolo[2,3-b]pyridin-3-yl)prop-2-enoyl]-1,2,3,4-tetrahydroisoquinoline dihydrochloride]: in data set [1] (Homo sapiens, NHDF, 1 μM), the inhibition at 1 µM is 65%. In addition, the inhibition at 3 µM in data set [1] (Homo sapiens, NHDF, 3 μM) is 53%.

With `COCn1c(-c2ccccc2)c(/C=C/C(=O)N2CCc3cc(OC)c(OC)cc3C2)c2cccnc21` [Example 139, 2-[(2E)-3-(1-methoxymethyl-2-phenyl-1H-pyrrolo[2,3-b]pyridin-3-yl)prop-2-enoyl]-6,7-dimethoxy-1,2,3,4-tetrahydroisoquinoline hydrochloride], the inhibition at 1 µM in data set [1] (Homo sapiens, NHDF, 1 μM) was 37%. In data set [1] (Homo sapiens, NHDF, 3 μM), the inhibition at 3 µM worked out at 54%.

As for `COc1cc2c(cc1OC)CN(C(=O)/C=C/c1c(-c3ccc(F)cc3)n(C)c3ncccc13)CC2` [Example 140, 2-{(2E)-3-[1-methyl-2-(4-fluorophenyl)-1H-pyrrolo[2,3-b]pyridin-3-yl]prop-2-enoyl}-6,7-dimethoxy-1,2,3,4-tetrahydroisoquinoline hydrochloride], the inhibition at 1 µM in data set [1] (Homo sapiens, NHDF, 1 μM) is 140%. Moreover, the inhibition at 3 µM in data set [1] (Homo sapiens, NHDF, 3 μM) stood at 171%.

In the case of `COC(=O)c1ccc(-c2c(/C=C/C(=O)N3CCC(C(C)=O)(c4ccccc4)CC3)c3cc(C)ccc3n2C)cc1` [Example 141, 4-acetyl-1-{(2E)-3-[1,5-dimethyl-2-(4-carbomethoxyphenyl)-1H-indol-3-yl]prop-2-enoyl}-4-phenylpiperidine], in data set [1] (Homo sapiens, NHDF, 1 μM), the inhibition at 1 µM was 111%. Also, the inhibition at 3 µM in data set [1] (Homo sapiens, NHDF, 3 μM) was determined as 114%.

Regarding `COC(=O)c1ccc(-c2c(/C=C/C(=O)N3CCc4cc(OC)c(OC)cc4C3)c3cc(C)ccc3n2C)cc1` [Example 142, 2-{(2E)-3-[1,5-dimethyl-2-(4-carbomethoxyphenyl)-1H-indol-3-yl]prop-2-enoyl}-6,7-dimethoxy-1,2,3,4-tetrahydroisoquinoline], in data set [1] (Homo sapiens, NHDF, 1 μM), the inhibition at 1 µM came to 65%. Besides, the inhibition at 3 µM in data set [1] (Homo sapiens, NHDF, 3 μM) worked out at 130%.

For the compound `COC(=O)c1ccc(-c2c(/C=C/C(=O)N(C)C3CCN(C)CC3)c3cc(C)ccc3n2C)cc1` [Example 143, (2E)-N-methyl-N-(1-methylpiperidin-4-yl)-3-[1,5-dimethyl-2-(4-carbomethoxyphenyl)-1H-indol-3-yl]acrylamide], the inhibition at 1 µM in data set [1] (Homo sapiens, NHDF, 1 μM) was 42%. Besides, in data set [1] (Homo sapiens, NHDF, 3 μM), the inhibition at 3 µM was 104%.

In the case of `Cc1ncsc1CCNC(=O)c1cnc(N2CCN(C(=O)c3c(-c4ccccc4)n(C)c4ccc(Br)cc34)CC2)cn1` [Example 144, 5-{4-[(5-bromo-1-methyl-2-phenyl-1H-indol-3-yl)carbonyl]piperazin-1-yl}-N-[2-(4-methyl-1,3-thiazol-5-yl)ethyl]pyrazine-2-carboxamide hydrochloride], the inhibition at 1 µM in data set [1] (Homo sapiens, NHDF, 1 μM) stood at 78%. For the same compound, the inhibition at 3 µM in data set [1] (Homo sapiens, NHDF, 3 μM) turned out to be 85%.

`Cc1ccc2c(c1)c(C(=O)N1CCN(c3cnc(C(=O)NCCc4ccc(O)cc4)cn3)CC1)c(-c1ccccc1)n2C` [Example 145, 5-{4-[(1,5-dimethyl-2-phenyl-1H-indol-3-yl)carbonyl]piperazin-1-yl}-N-[2-(4-hydroxyphenyl)ethyl]pyrazine-2-carboxamide hydrochloride]: the inhibition at 1 µM in data set [1] (Homo sapiens, NHDF, 1 μM) was 55%. Further, the inhibition at 3 µM in data set [1] (Homo sapiens, NHDF, 3 μM) came to 64%.

With `CC(=O)C1(c2ccccc2)CCN(C(=O)C=Cc2c(-c3ccc(C(=O)O)cc3)n(C)c3ccc(C)cc23)CC1` [Example 146, 4-{3-[3-(4-acetyl-4-phenylpiperidin-1-yl)-3-oxo-1-propenyl]-1,5-dimethyl-1H-indol-2-yl}benzoic acid], the inhibition at 1 µM in data set [1] (Homo sapiens, NHDF, 1 μM) was 43%. For the same compound, the inhibition at 3 µM in data set [1] (Homo sapiens, NHDF, 3 μM) is 60%.

Take `Cc1ncsc1CCNC(=O)c1cnc(N2CCN(C(=O)c3c(-c4ccccc4)n(C)c4ccc(F)cc34)CC2)cn1` [Example 147, 5-{4-[(5-fluoro-1-methyl-2-phenyl-1H-indol-3-yl)carbonyl]piperazin-1-yl}-N-[2-(4-methyl-1,3-thiazol-5-yl)ethyl]pyrazine-2-carboxamide dihydrochloride]: the inhibition at 1 µM in data set [1] (Homo sapiens, NHDF, 1 μM) turned out to be 29%. Moreover, in data set [1] (Homo sapiens, NHDF, 3 μM), the inhibition at 3 µM was found to be 59%.

For the compound `Cc1cnc2c(c1)c(C(=O)N1CCN(c3cnc(C(=O)NCCc4scnc4C)cn3)CC1)c(-c1ccccc1)n2C` [Example 148, 5-{4-[(1,5-dimethyl-2-phenyl-1H-pyrrolo[2,3-b]pyridin-3-yl)carbonyl]piperazin-1-yl}-N-[2-(4-methyl-1,3-thiazol-5-yl)ethyl]pyrazine-2-carboxamide trihydrochloride], the inhibition at 1 µM in data set [1] (Homo sapiens, NHDF, 1 μM) was determined as 29%. The inhibition at 3 µM in data set [1] (Homo sapiens, NHDF, 3 μM) came out at 53%.
